Holding throughout (format): cell-based
The test system of data set [1] is bovine adrenal medullary microvascular endothelial cells. Kind of data set: Cell viability by trypan blue exclusion. The conditions noted are these: under tunicamycin exposure (0.5-5.0 μg/ml, 32 hours). How it is done:
For proliferation assay, cells were trypsinized and counted in a hemacytometer. Viability of cells was determined by trypan blue (0.4% (v/v)) exclusion. Statistical analysis was carried out by StatView II software (Macintosh). Quantitation of cellular differentiation was carried out by observing under a Nikon AlphaShot inverted microscope, and counting the number of capillary lumen-like structures in five randomly selected fields per sample.
Proliferation and Differentiation of Capillary Endothelial Cells: 2.0×10^4 cells were seeded per well in 24-well clusters in 1 ml complete EMEM containing 10% (v/v) serum and allowed to grow for 72 hours. Media were removed and the cells were washed twice with phosphate-buffer saline, pH 7.4 (PBS). […] Cells were routinely monitored by light microscopy. For proliferation assay, cells were trypsinized and counted in a hemacytometer. Viability of cells was determined by trypan blue (0.4% (v/v)) exclusion. […] Quantitation of cellular differentiation was carried out by observing under a Nikon AlphaShot inverted microscope, and counting the number of capillary lumen-like structures in five randomly selected fields per sample. The results were expressed as percent of its corresponding control after normalization of cell numbers. […] After FacSort calibration, 3000 events were counted per sample. […]

For data set [2] the test system is unchanged. Kind of data set: Cell cycle and apoptosis by flow cytometry (propidium iodide). How it is done: Regarding flow cytometry, assessment of the cell cycle was determined by propidium iodide staining of fixed cell nuclei followed by flow cytometry in a FacSort (Beckton Dickinson) according to the method of Krishan (1975) as modified by Vindelov (1977), as discussed in KRISHAN, “Rapid Flow Cytofluorometric Analysis of Mammalian Cell Cycle by Propidium Iodide Staining”, J. Cell Biol., 66:188-193 (1975); and VINDELOV, “Flow Cytometric Analysis of Nuclear DNA in Cells from Solid Tumors and Cell Suspensions”, Virchows Arch (B), 24:227-231(1977), the disclosures of which are herein incorporated by reference in their entireties. Briefly, cells were trypsinized, and pelleted by centrifugation at 900 rpm in a bench top centrifuge (Sorvall T6000B). After washing twice with PBS the cell pellet was resuspended in propidium iodide-buffer (PI-buffer; 10 mM Tris-HCl, pH 8.0 containing 10 mM NaCl, 0.7 μM PI, 700 units/liter RNase, and 0.1% (v/v) NP-40), kept in ice for 30 minutes and then fixed with 2% (v/v) paraformaldehyde. After FacSort calibration, 3000 events were counted per sample. Acquisition and analysis of data were carried out by using Cell Quest flow cytometry software (Macintosh-based). Gates: M1=G0/G1, M2=S, M3=G2+M, M4=apoptosis.
Proliferation and Differentiation of Capillary Endothelial Cells: 2.0×10^4 cells were seeded per well in 24-well clusters in 1 ml complete EMEM containing 10% (v/v) serum and allowed to grow for 72 hours. Media were removed and the cells were washed twice with phosphate-buffer saline, pH 7.4 (PBS). Cells were synchronized by incubating for 48 hours in 2 mM hydroxyurea in serum-free EMEM with glutamine (2 mM) and one-third of penicillin-streptomycin used in a regular culture condition, followed by incubating 24 hours in serum-free EMEM, as discussed in CAO et al., “Modified Method of Mammalian Cell Synchronization Improves Yield and Degree of Synchronization”, Exp. Cell Res., 193:405-410 (1991), the disclosure of which is herein incorporated by reference in its entirety. Cells were routinely monitored by light microscopy. For proliferation assay, cells were trypsinized and counted in a hemacytometer. Viability of cells was determined by trypan blue (0.4% (v/v)) exclusion. Statistical analysis was carried out by StatView II software (Macintosh). Quantitation of cellular differentiation was carried out by observing under a Nikon AlphaShot inverted microscope, and counting the number of capillary lumen-like structures in five randomly selected fields per sample. The results were expressed as percent of its corresponding control after normalization of cell numbers. Analysis of Cell Cycle by Flow Cytometry: Assessment of the cell cycle was determined by propidium iodide staining of fixed cell nuclei followed by flow cytometry in a FacSort (Beckton Dickinson) according to the method of Krishan (1975) as modified by Vindelov (1977), as discussed in KRISHAN, “Rapid Flow Cytometric Analysis of Mammalian Cell Cycle by Propidium Iodide Staining”, J. Cell Biol. 66:188-195 (1975); and VINDELOV, “Flow Cytometric Analysis of Nuclear DNA in Cells from Solid Tumors and Cell Suspensions”, Virchows Arch (B), 24:227-231 (1977), the disclosures of which are herein incorporated by reference in their entireties. Briefly, cells were trypsinized, and pelleted by centrifugation at 900 rpm in a bench top centrifuge (Sorvall T6000B). After washing twice with PBS the cell pellet was resuspended in propidium iodide-buffer (PI-buffer; 10 mM Tris-HCl, pH 8.0 containing 10 mM NaCl, 0.7 μM PI, 700 units/liter RNase, and 0.1% (v/v) NP-40), kept in ice for 30 minutes and then fixed with 2% (v/v) paraformaldehyde. After FacSort calibration, 3000 events were counted per sample. Acquisition and analysis of data were carried out by using Cell Quest flow cytometry software (Macintosh-based). Gates: M1 G0/G1, M2=S, M3=G2+M, M4=apoptosis.

For data set [3] the test system is unchanged. Kind of data set: Recovery of endothelial cells after tunicamycin treatment (parental line). As to the method:
If the behavior of tunicamycin observed here is truly anti-angiogenic and is not due to cytotoxicity then cells must recover following a tunicamycin treatment that is shorter in duration, and the concentrations are moderate. […] On the other hand, the recovery was quantitative from a 24 hour exposure to tunicamycin at all concentrations (data not shown).

For data set [4] the test system is unchanged. Nature of the data set: DNA laddering by agarose gel electrophoresis. Conditions: DNA from cells treated with 1 μg/ml tunicamycin for 32 hours.

For the substance tunicamycin, the “total adherent cells viable” value in data set [1] is listed as “more than 70%”. The “completion of the cell cycle” value in data set [2] (1 μg/ml tunicamycin) is recorded as “never completed the cell cycle”. Also, the “cell population entered into apoptosis” value in data set [2] (1 μg/ml tunicamycin, 32 hours exposure, synchronized cells, EMEM 2% (v/v) FBS) is ~70%. In addition, the “apoptosis by flow cytometric analysis (in words)” value in data set [2] (in the presence of tunicamycin) is reported as “underwent apoptosis”. For the same substance, in data set [3] (10 ng/ml tunicamycin for 48 hours), the “recovery of cells in 5 days” value is recorded as “full recovery”. The recovery of cells result in data set [3] (1 μg/ml tunicamycin for 48 hours) is given as “approximately 40%”; in data set [3] (10 μg/ml tunicamycin for 48 hours), 12%; in data set [3] (24 hour exposure to tunicamycin at all concentrations (data not shown)), “quantitative”; in data set [3] (tunicamycin for 72 hours or longer at 1 μg/ml or 10 μg/ml), “never recovered”. The DNA laddering entry in data set [4] is “appearance of laddering”.

The record behind these values is patent US7361643B2, “Methods for inhibiting angiogenesis” (University of Puerto Rico, priority 2000, dated 2008).
